Measurements reported in PMC10107436, “Persicamidines—Unprecedented Sesquarterpenoids with Potent Antiviral Bioactivity against Coronaviruses” (Angewandte Chemie (International Ed. in English), 2023).

Assays:
[1] = system: hCoV-229E; experiment: microbe, parasite or virus in culture; assay type: cell-based; conditions: Human coronavirus 229E
[2] = system: SARS-CoV-2; experiment: microbe, parasite or virus in culture; assay type: cell-based; conditions: for IC50: Severe acute respiratory syndrome coronavirus 2, SARS-CoV-2 in A549_ACE2_TMPRSS2 cells, fluorescence, mean of three biological replicates; for selectivity index (CC50/IC50): CC50 in A549_ACE2_TMPRSS2 cells over IC50
[3] = in vitro; conditions: human

SMILES | IC50 [1] [nM] | IC50 [2] [nM] | selectivity index (CC50/IC50) [2] | viral inhibition ([2]; SARS-CoV-2, antiviral compound control at 1 µM) | CC50 [3] [nM]
CO[C@@H]1C[C@H](O[C@H]2C[C@](C)(CO)[C@@H]3CC[C@@]4(C)[C@@H]5CC[C@@H]6[C@H](CC(=O)[C@]7(C)C8=COC(N[C@H](C)C(C)C)=N[C@]8(C)[C@@H](O)[C@@H]8O[C@@]687)[C@@]5(C)CC[C@@H]4[C@@]3(C)[C@@H]2O)O[C@H](C)[C@H]1O [Persicamidine C, persicamidine C] | 6.6 | 74 | > 50 |  | 
CCC(CC)COC(=O)[C@H](C)N[P@](=O)(OC[C@H]1O[C@@](C#N)(c2ccc3c(N)ncnn23)[C@H](O)[C@@H]1O)Oc1ccccc1 [Remdesivir, reference compound] | 3.5 | 30 |  | full viral inhibition | > 1000
CO[C@@H]1C[C@H](O[C@H]2C[C@](C)(CO)[C@@H]3CC[C@@]4(C)[C@@H]5CC[C@@H]6[C@H](CC(=O)[C@]7(C)C8=COC(N[C@H](C)C(C)(C)C)=N[C@]8(C)[C@@H](O)[C@@H]8O[C@@]687)[C@@]5(C)CC[C@@H]4[C@@]3(C)[C@@H]2O)O[C@H](C)[C@H]1O [Persicamidine D, persicamidine D] | 5.2 | 84 | > 80 |  | 
CC[C@@H](C)NC1=N[C@@]2(C)C(=CO1)[C@@]1(C)C(=O)C[C@H]3[C@@H](CC[C@@H]4[C@]3(C)CC[C@H]3[C@@]4(C)CC[C@H]4[C@@](C)(CO)C[C@H](O[C@H]5C[C@@H](OC)[C@H](O)[C@@H](C)O5)[C@@H](O)[C@@]43C)[C@@]13O[C@H]3[C@@H]2O [Persicamidine A, persicamidine A] | 3.8 | 130 |  |  | 
CCNC1=N[C@@]2(C)C(=CO1)[C@@]1(C)C(=O)C[C@H]3[C@@H](CC[C@@H]4[C@]3(C)CC[C@H]3[C@@]4(C)CC[C@H]4[C@@](C)(CO)C[C@H](O[C@H]5C[C@@H](OC)[C@H](O)[C@@H](C)O5)[C@@H](O)[C@@]43C)[C@@]13O[C@H]3[C@@H]2O [Persicamidine E, persicamidine E] | 5.3 | 250 |  |  | 
CO[C@@H]1C[C@H](O[C@H]2C[C@](C)(CO)[C@@H]3CC[C@@]4(C)[C@@H]5CC[C@@H]6[C@H](CC(=O)[C@]7(C)C8=COC(NC(C)C)=N[C@]8(C)[C@@H](O)[C@@H]8O[C@@]687)[C@@]5(C)CC[C@@H]4[C@@]3(C)[C@@H]2O)O[C@H](C)[C@H]1O [Persicamidine B, persicamidine B] | 3.6 | 230 |  |  | 
